Assay results taken from patent publication US11052154B2, “Ras protein degradation inducing molecule and pharmaceutical composition” (Tokyo University of Science Foundation, priority 2016, dated 2021).
Where a SMILES comes first, the peptide text is derived from it. [ ]: non-standard residue; d: D form. Nle = CCCC[C@H](N)C(=O)O

Legend:
[1] = biological target: T1, catalytic subunit β5 of the proteasome (Homo sapiens, UniProt P28074); experiment: Proteasome inhibitory activity, 20S proteasome β5 (chymotrypsin-like activity); assay type: biochemical; details: 20S proteasome assay kit, AMC fluorescence substrate; FIGS. 10C, 13C
T1 construct: purchased Bioscience (so in the source) 20S Proteasome StressXpress Assay Kit Gold
Description: (§1) In Reference Example 2, the proteasome inhibitory activity of TMP-CANDDY_DMT and the affinity of TMP-CANDDY_DMT with a proteasome were evaluated. As a positive control, MG-132 as a proteasome inhibitor was used.
(§2) For evaluation, 20S Proteasome StressXpress™ Assay Kit Gold (Bioscience) was used. AMC was measured by using Multi-Detection Microplate Reader (Synergy HT, BIO-TEK). The AMC was produced by cleaving the C-terminus of an AMC-binding proteasome fluorescence substrate specific to β subunits of a 20S proteasome, including β5 (chymotrypsin-like activity), β2 (trypsin-like activity), and β1 (caspase-like activity). The measuring wavelengths were 360 nm for excitation light (Ex.), and 460 nm for fluorescence (Em.).
(§3) In Reference Example 6, as in Reference Example 2, a proteasome inhibitory activity of TMP-CANDDY_ALLN and an affinity of TMP-CANDDY_ALLN with a proteasome were evaluated.

ecDHFR protein [2] = biological target: T2, ecDHFR protein (Escherichia coli, UniProt P0ABQ4); assay type: cell-based, human; details: HeLa cells, FIGS. 12A, 12B
T2 construct: expressed in transfected cells; host or cells: HeLa

ecDHFR protein [3] = biological target: T2, ecDHFR protein; assay type: cell-based, human; details: HeLa cells, 24 hours after addition, vs control (DMSO); FIGS. 11, 14
[4] = biological target: T3, catalytic subunit β2 of the proteasome (Homo sapiens, UniProt Q99436); experiment: Proteasome inhibitory activity, 20S proteasome β2 (trypsin-like activity); assay type: biochemical; details: 20S proteasome assay kit, AMC fluorescence substrate; FIGS. 10B, 13B
T3 construct: purchased Bioscience (so in the source) 20S Proteasome StressXpress Assay Kit Gold
Description: as §1, §2, §3

[5] = biological target: T4, catalytic subunit β1 of a proteasome (Homo sapiens, UniProt P28072); experiment: Proteasome inhibitory activity, 20S proteasome β1 (caspase-like activity); assay type: biochemical; details: 20S proteasome assay kit, AMC fluorescence substrate; FIGS. 10A, 13A
T4 construct: purchased Bioscience (so in the source) 20S Proteasome StressXpress Assay Kit Gold
Description: as §1, §2, §3

SW1990 cells = experiment: Apoptosis induction in SW1990 cells, FACS analysis (Annexin V/PI); assay type: cell-based, human; details: SW1990 cells expressing G12D mutant K-Ras, 24 hours after addition; FIGS. 6B, 7B
Description: (§4) In Example 7, apoptosis induction in a case where TUS-007, Ras-SOS, or Ras-SOS-NH2 was added to HeLa cells or SW1990 cells (human pancreatic cancer cells) had been added was evaluated by the FACS analysis. It is noted that in HeLa cells, the wild-type K-Ras protein (K-Ras-WT) is expressed, and in SW1990 cells, the G12D mutant K-Ras protein (K-Ras-G12D) is expressed.
(§5) HeLa cells or SW1990 cells were seeded in a 24-well plate at a cell density of 8×10^4 cells/well, and then cultured under conditions of 37° C. and 5 vol % CO2 for 16 hours.
(§6) After 16 hours from cell seeding, TUS-007, Ras-SOS, or Ras-SOS-NH2 were added to HeLa cells or SW1990 cells as follows. As a medium, a serum-free medium (37° C.) in which 1 mass % L-glutamine solution (Sigma-Aldrich) was added to D-MEM (high D-glucose, phenol red, sodium pyruvate (Wako Pure Chemical Industries, Ltd.)) was used. It is noted that the L-glutamine solution was added immediately before use. A DMSO solution containing TUS-007, Ras-SOS, or Ras-SOS-NH2 was mixed with the medium so that the concentration of DMSO was 1 vol %, and added to each well at 500 μL/well, and cultured under conditions of 37° C. and 5 vol % CO2. As a control, DMSO was used.
(§7) The medium was removed 24 hours after addition of TUS-007, Ras-SOS, or Ras-SOS-NH2, and then PBS was added to wash the cells. After removing PBS, trypsin (0.25 w/v % trypsin-1 mmol/L EDTA⋅4 Na solution with phenol red) (Wako Pure Chemical Industries, Ltd.) at 37° C. was added to each well at 200 μL/well, and cultured under conditions of 37° C. and 5 vol % CO2 for 1 minute. […]
(§8) A BD FACSCanto™ II (BD Biosciences) was used for flow cytometry. […] The proportion of Annexin V-positive and PI-negative cells was calculated using an analysis software FlowJo™ (TOMY Digital Biology Co., Ltd.), and the proportion was defined as a proportion of apoptosis cells.
(§9) In Example 8, apoptosis induction in a case where TUS-007, Ras-SOS-NH2, or erlotinib as an anticancer agent (EGFR inhibitor) was added to HeLa cells or SW1990 cells was evaluated by FACS analysis as in Example 7.

K-Ras protein = details: known from Sun, Q. et al.; cited from earlier work
[6] = system: interaction between the Ras protein and the SOS protein; details: known from Sun, Q. et al.; cited from earlier work
HeLa cells = experiment: Apoptosis induction in HeLa cells, FACS analysis (Annexin V/PI); assay type: cell-based, human; details: HeLa cells expressing wild-type K-Ras, 24 hours after addition; FIGS. 6A, 7A
Description: as §4, §5, §6, §7, §8, §9

[7] = biological target: T5, endogenous wild-type H-Ras protein (Mus musculus, UniProt Q61411); experiment: Degradation of endogenous wild-type H-Ras protein in mouse pancreas and colorectal tissue, Western blot analysis; assay type: in vivo; details: C57BL/6J mice, intraperitoneal, TUS-007 40 or 80 mg/kg, Ras-SOS 80 mg/kg, 48 hours; pancreas and colon; FIG. 8
T5 construct: an endogenous wild-type K-Ras protein and wild-type H-Ras protein; from tissue; host or cells: mouse pancreas and colon
Description: (§10) In Example 9, in a mouse individual to which TUS-007 had been administered, the degradation (knockdown) of an endogenous wild-type K-Ras protein and wild-type H-Ras protein was evaluated by Western blot analysis.
(§11) TUS-007 was dissolved in DMSO, and then dissolved in corn oil so that the concentration of DMSO was 10 vol %, and then intraperitoneally administered to C57BL/6J wild-type mice (8 to 9 weeks old, male) (CLEA Japan, Inc.) in an amount of 40 mg/kg body weight or 80 mg/kg body weight (n=3 to 4). Furthermore, in addition to a group in which TUS-007 was administered, a group in which Ras-SOS had been administered in a dose of 80 mg/kg body weight was prepared. As a control, an injection carrier (corn oil containing 10 vol % DMSO) was used. The mice were kept under an environment of ad libitum access to food and water. The mice were dissected under deep anesthesia 48 hours after administration. The pancreas and colon were excised, and flash frozen in liquid nitrogen.
(§12) The frozen pancreas and colon were each triturated, and then TKM tissue lysis buffer (50 mM triethanolamine (pH 7.8), 50 mM KCl, 5 mM MgCl2, 0.25 M sucrose, 1 mM PMSF, Protein Inhibitors Cocktail-EDTA free (Nacalai Tesque, Inc.), 1 mM DTT, and a recombinant RNase inhibitor (0.2 U/μL, Takara Bio) were added, and subjected to centrifugation (at 13800 rpm×30 minutes, 4° C.), and the supernatants (pancreatic tissue extract and colorectal tissue extract) were collected. The concentration of the extracted proteins was quantified with a spectrophotometer.
(§13) Each tissue extract collected was subjected to Western blot analysis. […]
(§14) After electrophoresis, proteins were transferred to a PVDF membrane (Immobion™-P, Millipore) under conditions of 200 mA and 90 minutes using a tank-type blotting device and a transfer buffer (25 mM Tris-HCl, 195 mM glycine, 0.01% SDS, 15% methanol). […] Subsequently, the membrane was treated with a chemiluminescence reagent Immobilon™ Western (Millipore), and then chemiluminescence was detected using a lumino image analyzer LAS-3000 (FUJIFILM Corporation).

[8] = biological target: T6, endogenous wild-type K-Ras protein (Mus musculus, UniProt P32883); experiment: Degradation of endogenous wild-type K-Ras protein in mouse pancreas and colorectal tissue, Western blot analysis; assay type: in vivo; details: C57BL/6J mice, intraperitoneal, TUS-007 40 or 80 mg/kg, Ras-SOS 80 mg/kg, 48 hours; pancreas and colon; FIG. 8
T6 construct: an endogenous wild-type K-Ras protein and wild-type H-Ras protein; from tissue; host or cells: mouse pancreas and colon
Description: as §10, §11, §12, §13, §14

[9] = biological target: T7, PAC-3 (molecule assembly factor) (Homo sapiens, UniProt Q9BT73); details: Table 17; cited from earlier work
T7 sequence (Q9BT73 1-122): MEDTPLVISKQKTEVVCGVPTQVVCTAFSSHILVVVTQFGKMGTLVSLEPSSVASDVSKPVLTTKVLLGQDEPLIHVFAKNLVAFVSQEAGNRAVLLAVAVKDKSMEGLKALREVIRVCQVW

[10] = biological target: T4, catalytic subunit β1 of a proteasome; details: literature report, consistent with FIG. 13A; cited from earlier work

Structure (SMILES): COc1nc(NCCCCCCNC(=O)COc2c(OC)cc(Cc3cnc(N)nc3N)cc2OC)nc(OC)n1 [TMP-CANDDY_DMT]
- inhibitory activity against proteasome β5 (chymotrypsin-like activity) [1]: significantly lower proteasome inhibitory activity as compared with MG-132
- amount of the ecDHFR protein (Western blot) (ecDHFR protein [2]; 24 hours after addition, cycloheximide 50 μg/mL at 12 hours): the amount of the ecDHFR protein was reduced
- degradation of the ecDHFR protein when both TMP-CANDDY_DMT and bortezomib were added (ecDHFR protein [2]; bortezomib co-added, compared with TMP-CANDDY_DMT alone): degradation of the ecDHFR protein was inhibited
- degradation (knockdown) of the ecDHFR protein (shift of GFP/DsRed ratio graph) (ecDHFR protein [3]): degradation of the ecDHFR protein was induced
- inhibitory activity against proteasome β2 (trypsin-like activity) [4]: significantly lower proteasome inhibitory activity as compared with MG-132
- inhibitory activity against proteasome β1 (caspase-like activity) [5]: significantly lower proteasome inhibitory activity as compared with MG-132

Structure (SMILES): CC[C@H](C)[C@H](N)C(=O)Nc1ccc2[nH]c(Cc3c[nH]c4ccccc34)nc2c1 [Ras-SOS]
- apoptosis induction (proportion of Annexin V-positive and PI-negative cells) (SW1990 cells): the effect of the apoptosis induction by Ras-SOS was largely reduced
- binding to K-Ras protein (wild-type, G12D mutant, G12V mutant) (K-Ras protein): bound to not only a wild-type K-Ras protein but also a G12D mutant and a G12V mutant K-Ras protein
- inhibition of the interaction between the Ras protein and the SOS protein [6]: inhibit the interaction between the Ras protein and the SOS protein
- apoptosis induction (proportion of Annexin V-positive and PI-negative cells) (HeLa cells): apoptosis was induced in a concentration-dependent manner
- amount of the endogenous wild-type H-Ras protein in mouse tissues (Western blot) [7]: the amount of the wild-type K-Ras protein and the wild-type H-Ras protein was not reduced
- amount of the endogenous wild-type K-Ras protein in mouse tissues (Western blot) [8]: the amount of the wild-type K-Ras protein and the wild-type H-Ras protein was not reduced

Structure (SMILES): CC(C)C(O)(CC1C(=O)/C(=C(\O)[C@H]2C3CCCC[C@H]3C=C[C@H]2C)C(=O)N1C)C(=O)O (some centres unmarked) [JBIR-22]
- Others: PAC-3 inhibition [9]: PAC-3 (molecule assembly factor) inhibition)

Structure (SMILES): C#Cc1cccc(Nc2ncnc3cc(OCCOC)c(OCCOC)cc23)c1 [erlotinib]
- apoptosis induction (proportion of Annexin V-positive and PI-negative cells) (SW1990 cells): the effect of the apoptosis induction by erlotinib was largely reduced
- apoptosis induction (proportion of Annexin V-positive and PI-negative cells) (HeLa cells): apoptosis was induced in a concentration-dependent manner

Structure (SMILES): CCCC[C@H](NC(=O)[C@H](CC(C)C)NC(=O)[C@H](CC(C)C)NC(C)=O)C(=O)NCCCCCCNC(=O)COc1c(OC)cc(Cc2cnc(N)nc2N)cc1OC [TMP-CANDDY_ALLN]
- inhibitory activity against proteasome β5 (chymotrypsin-like activity) [1]: the inhibitory activity was weakened
- degradation (knockdown) of the ecDHFR protein (shift of GFP/DsRed ratio graph) (ecDHFR protein [3]): degradation of the ecDHFR protein was induced
- inhibitory activity against proteasome β2 (trypsin-like activity) [4]: the inhibitory activity was weakened
- inhibitory activity against proteasome β1 (caspase-like activity) [5]: increased against any of β1, β2, and β5 in a concentration dependent manner

Structure (SMILES): CCCC[C@@H](C=O)NC(=O)[C@H](CC(C)C)NC(=O)[C@H](CC(C)C)NC(C)=O [ALLN] (Ac-Leu-Leu-[Nle]-aldehyde)
- inhibition of proteasome β1 as reported (Kaiser, M. et al.) [10]: β1 was not inhibited by ALLN
